US20170217976A1, “6-(AMINO ACID)-MORPHINAN DERIVATIVES IN COMBINATION WITH PERMEATION […] FOR USE AS AN ORALLY, […], TRA[…] NASALLY AD[…]” (C[…], priority 2014, published 2017)
Like-named read-outs stand apart in the source and are kept apart here.

What was measured:
[1] = molecular target: T1, MOR (Rattus norvegicus, UniProt P33535); assay: Opioid receptor binding, MOR, rat brain membranes
T1 construct: from tissue

[2] = molecular target: T2, DOR (Rattus norvegicus, UniProt P33533); assay: Opioid receptor binding, DOR, rat brain membranes
T2 construct: from tissue

[3] = molecular target: T3, KOR (Cavia porcellus, UniProt P41144); assay: Opioid receptor binding, KOR, guinea pig brain membranes
T3 construct: from tissue

[4] = Binding Ki (nM) MOR, in vitro binding assay, rat brain membranes
[5] = Binding Ki (nM) DOR, in vitro binding assay, rat brain membranes
[6] = Binding Ki (nM) KOR, in vitro binding assay, guinea pig brain membranes
[7] = in vitro binding assay, rat brain membranes, read-out: Binding Ki (nM) MOR
[8] = in vitro binding assay, rat brain membranes, read-out: Binding Ki (nM) DOR
[9] = in vitro binding assay, guinea pig brain membranes, read-out: Binding Ki (nM) KOR
[10] = Binding Ki MOR, Table 2-6, rat brain membranes
[11] = Binding Ki DOR, Table 2-6, rat brain membranes
[12] = Binding Ki KOR, Table 2-6, guinea pig brain membranes
[13] = Table 2-6, rat brain membranes, read-out: Binding Ki MOR
[14] = Table 2-6, rat brain membranes, read-out: Binding Ki DOR
[15] = Table 2-6, guinea pig brain membranes, read-out: Binding Ki KOR

T1 sequence (P33535 whole entry): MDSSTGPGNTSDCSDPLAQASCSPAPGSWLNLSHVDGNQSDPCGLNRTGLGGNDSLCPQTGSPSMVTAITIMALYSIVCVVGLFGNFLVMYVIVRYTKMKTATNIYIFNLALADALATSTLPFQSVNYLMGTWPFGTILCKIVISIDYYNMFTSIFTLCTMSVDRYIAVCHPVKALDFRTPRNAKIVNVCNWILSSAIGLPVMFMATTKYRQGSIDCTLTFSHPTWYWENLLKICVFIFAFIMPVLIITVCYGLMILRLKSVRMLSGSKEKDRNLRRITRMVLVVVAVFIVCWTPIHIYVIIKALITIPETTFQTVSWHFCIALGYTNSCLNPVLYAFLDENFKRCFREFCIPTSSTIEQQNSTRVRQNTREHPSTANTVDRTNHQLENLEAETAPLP
T3 sequence (P41144 whole entry): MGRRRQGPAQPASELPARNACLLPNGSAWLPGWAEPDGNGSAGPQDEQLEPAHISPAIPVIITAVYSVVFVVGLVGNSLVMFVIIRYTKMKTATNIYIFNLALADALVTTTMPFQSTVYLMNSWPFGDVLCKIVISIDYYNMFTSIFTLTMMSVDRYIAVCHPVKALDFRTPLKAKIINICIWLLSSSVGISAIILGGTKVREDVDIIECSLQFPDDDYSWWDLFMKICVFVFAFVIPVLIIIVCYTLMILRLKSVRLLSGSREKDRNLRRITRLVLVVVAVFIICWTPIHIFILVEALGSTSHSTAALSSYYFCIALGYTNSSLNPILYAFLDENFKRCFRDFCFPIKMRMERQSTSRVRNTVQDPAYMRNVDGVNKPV
T2 sequence (P33533 whole entry): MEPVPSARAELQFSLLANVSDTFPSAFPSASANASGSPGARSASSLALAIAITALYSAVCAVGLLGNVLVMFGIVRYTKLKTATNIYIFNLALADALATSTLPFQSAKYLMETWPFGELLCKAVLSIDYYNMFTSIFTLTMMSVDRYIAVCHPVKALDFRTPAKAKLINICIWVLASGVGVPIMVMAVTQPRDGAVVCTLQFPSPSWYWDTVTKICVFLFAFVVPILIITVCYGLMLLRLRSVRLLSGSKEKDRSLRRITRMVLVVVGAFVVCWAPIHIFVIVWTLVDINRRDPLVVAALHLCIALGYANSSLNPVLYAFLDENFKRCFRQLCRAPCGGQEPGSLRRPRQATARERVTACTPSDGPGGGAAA

SMILES: CO[C@@]12CC[C@@H](N[C@@H](CCC(N)=O)C(=O)OC(C)(C)C)[C@@H]3Oc4c(O)ccc5c4[C@@]31CCN(C)[C@@H]2C5 [18-t-Bu ester]
- Ki [1, 4]: 1.65 nM
- Ki [2, 5]: 1.35 nM
- Ki [3, 6]: 163 nM

SMILES: CO[C@@]12CC[C@H](N[C@@H](CCC(=O)OC(C)(C)C)C(=O)OC(C)(C)C)[C@@H]3Oc4c(O)ccc5c4[C@@]31CCN(C)[C@@H]2C5 [19-t-Bu ester]
- Ki [1, 7]: 0.27 nM
- Ki [2, 8]: 0.32 nM
- Ki [3, 9]: 18.3 nM

SMILES: CO[C@@]12CC[C@@H](N[C@@H](CCC(=O)OC(C)(C)C)C(=O)OC(C)(C)C)[C@@H]3Oc4c(O)ccc5c4[C@@]31CCN(C)[C@@H]2C5 [20-t-Bu ester]
- Ki [1, 7]: 1.53 nM
- Ki [2, 8]: 0.19 nM
- Ki [3, 9]: 81.5 nM

SMILES: CO[C@@]12CC[C@H](NCCC(=O)OC(C)(C)C)[C@@H]3Oc4c(O)ccc5c4[C@@]31CCN(C)[C@@H]2C5 [21-t-Bu ester]
- Ki [1, 4]: 0.31 nM
- Ki [2, 5]: 0.83 nM
- Ki [3, 6]: 13.5 nM

SMILES: CO[C@@]12CC[C@@H](NCCC(=O)OC(C)(C)C)[C@@H]3Oc4c(O)ccc5c4[C@@]31CCN(C)[C@@H]2C5 [22-t-Bu ester]
- Ki [1, 4]: 0.35 nM
- Ki [2, 5]: 0.23 nM
- Ki [3, 6]: 7.54 nM

SMILES: CO[C@@]12CC[C@H](N[C@@H](CCSC)C(=O)OC(C)(C)C)[C@@H]3Oc4c(O)ccc5c4[C@@]31CCN(C)[C@@H]2C5 [23-t-Bu ester]
- Ki [1, 7]: 0.32 nM
- Ki [2, 8]: 0.12 nM
- Ki [3, 9]: 10.5 nM

SMILES: CO[C@@]12CC[C@@H](N[C@@H](CCSC)C(=O)OC(C)(C)C)[C@@H]3Oc4c(O)ccc5c4[C@@]31CCN(C)[C@@H]2C5 [24-t-Bu ester]
- Ki [1, 4]: 1.83 nM
- Ki [2, 5]: 0.81 nM
- Ki [3, 6]: 166 nM

SMILES: CO[C@@]12CC[C@H](N[C@@H](CC(N)=O)C(=O)OC(C)(C)C)[C@@H]3Oc4c(O)ccc5c4[C@@]31CCN(C)[C@@H]2C5 [26-t-Bu ester]
- Ki [1, 7]: 0.45 nM
- Ki [2, 8]: 0.33 nM
- Ki [3, 9]: 5.33 nM

SMILES: CO[C@@]12CC[C@@H](N[C@@H](CC(N)=O)C(=O)OC(C)(C)C)[C@@H]3Oc4c(O)ccc5c4[C@@]31CCN(C)[C@@H]2C5 [27-t-Bu ester]
- Ki [1, 4]: 0.6 nM
- Ki [2, 5]: 0.66 nM
- Ki [3, 6]: 75.8 nM

SMILES: CO[C@@]12CC[C@H](N[C@H](C(=O)OC(C)(C)C)C(C)C)[C@@H]3Oc4c(O)ccc5c4[C@@]31CCN(C)[C@@H]2C5 [28-t-Bu ester]
- Ki [1, 7]: 0.25 nM
- Ki [2, 8]: 0.18 nM
- Ki [3, 9]: 10.5 nM

SMILES: CO[C@@]12CC[C@@H](N[C@H](C(=O)OC(C)(C)C)C(C)C)[C@@H]3Oc4c(O)ccc5c4[C@@]31CCN(C)[C@@H]2C5 [29-t-Bu ester]
- Ki [1, 4]: 1.03 nM
- Ki [2, 5]: 0.86 nM
- Ki [3, 6]: 214 nM

SMILES: CO[C@@]12CC[C@H](N[C@@H](C(=O)OC(C)(C)C)C(C)C)[C@@H]3Oc4c(O)ccc5c4[C@@]31CCN(C)[C@@H]2C5 [30-t-Bu ester]
- Ki [1, 7]: 0.11 nM
- Ki [2, 8]: 0.093 nM
- Ki [3, 9]: 22.7 nM

SMILES: CO[C@@]12CC[C@@H](N[C@@H](C(=O)OC(C)(C)C)C(C)C)[C@@H]3Oc4c(O)ccc5c4[C@@]31CCN(C)[C@@H]2C5 [31-t-Bu ester]
- Ki [1, 7]: 1.98 nM
- Ki [2, 8]: 0.21 nM
- Ki [3, 9]: 206 nM

SMILES: CO[C@@]12CC[C@H](N[C@H](C(=O)N[C@@H](Cc3ccc(O)cc3)C(=O)OC(C)(C)C)C(C)C)[C@@H]3Oc4c(O)ccc5c4[C@@]31CCN(C)[C@@H]2C5 [32-t-Bu ester]
- Ki [1, 4]: 0.11 nM
- Ki [2, 8]: 0.17 nM
- Ki [3, 9]: 3.5 nM

SMILES: CO[C@@]12CC[C@H](N[C@H](C(=O)OC(C)(C)C)[C@@H](C)O)[C@@H]3Oc4c(O)ccc5c4[C@@]31CCN(C)[C@@H]2C5 [34-t-Bu ester]
- Ki [1, 4]: 0.2 nM
- Ki [2, 5]: 0.37 nM
- Ki [3, 6]: 9.24 nM

SMILES: CO[C@@]12CC[C@@H](N[C@H](C(=O)OC(C)(C)C)[C@@H](C)O)[C@@H]3Oc4c(O)ccc5c4[C@@]31CCN(C)[C@@H]2C5 [35-t-Bu ester]
- Ki [1, 4]: 0.51 nM
- Ki [2, 5]: 0.65 nM
- Ki [3, 6]: 102 nM

SMILES: CO[C@@]12CC[C@H](N[C@@H](CO)C(=O)OC(C)(C)C)[C@@H]3Oc4c(O)ccc5c4[C@@]31CCN(C)[C@@H]2C5 [36-t-Bu ester]
- Ki [1, 4]: 0.2 nM
- Ki [2, 5]: 0.17 nM
- Ki [3, 6]: 6.2 nM

SMILES: CO[C@@]12CC[C@@H](N[C@@H](CO)C(=O)OC(C)(C)C)[C@@H]3Oc4c(O)ccc5c4[C@@]31CCN(C)[C@@H]2C5 [37-t-Bu ester]
- Ki [1, 7]: 0.6 nM
- Ki [2, 8]: 0.64 nM
- Ki [3, 9]: 83.3 nM

SMILES: CO[C@@]12CC[C@H](N[C@@H](CCCCN)C(=O)OC(C)(C)C)[C@@H]3Oc4c(O)ccc5c4[C@@]31CCN(C)[C@@H]2C5 [38-t-Bu ester]
- Ki [1, 7]: 0.17 nM
- Ki [2, 8]: 0.092 nM
- Ki [3, 9]: 0.89 nM

SMILES: CO[C@@]12CC[C@@H](N[C@@H](CCCCN)C(=O)OC(C)(C)C)[C@@H]3Oc4c(O)ccc5c4[C@@]31CCN(C)[C@@H]2C5 [39-t-Bu ester]
- Ki [1, 7]: 0.58 nM
- Ki [2, 8]: 0.88 nM
- Ki [3, 9]: 21.4 nM

SMILES: CO[C@@]12CC[C@H](N[C@@H](CC(C)C)C(=O)OC(C)(C)C)[C@@H]3Oc4c(O)ccc5c4[C@@]31CCN(C)[C@@H]2C5 [40-t-Bu ester]
- Ki [1, 4]: 0.087 nM
- Ki [2, 5]: 0.13 nM
- Ki [3, 6]: 8.07 nM

SMILES: CO[C@@]12CC[C@@H](N[C@@H](CC(C)C)C(=O)OC(C)(C)C)[C@@H]3Oc4c(O)ccc5c4[C@@]31CCN(C)[C@@H]2C5 [41-t-Bu ester]
- Ki [1, 4]: 0.57 nM
- Ki [2, 5]: 0.42 nM
- Ki [3, 6]: 240 nM

SMILES: CO[C@@]12CC[C@@H](N[C@@H](Cc3c[nH]c4ccccc34)C(=O)OC(C)(C)C)[C@@H]3Oc4c(O)ccc5c4[C@@]31CCN(C)[C@@H]2C5 [46-t-Bu ester]
- Ki [1, 7]: 0.26 nM
- Ki [2, 8]: 0.36 nM
- Ki [3, 9]: 9.89 nM

SMILES: CCO[C@@]12CC[C@H](N[C@@H](Cc3ccccc3)C(=O)OC(C)(C)C)[C@@H]3Oc4c(O)ccc5c4[C@@]31CCN(CC1CC1)[C@@H]2C5 [55-tBu ester]
- Ki [1, 10]: 0.63 nM
- Ki [2, 11]: 2.38 nM
- Ki [3, 12]: 4.12 nM

SMILES: CCO[C@@]12CC[C@@H](N[C@@H](Cc3ccccc3)C(=O)OC(C)(C)C)[C@@H]3Oc4c(O)ccc5c4[C@@]31CCN(CC1CC1)[C@@H]2C5 [56-tBu ester]
- Ki [1, 10]: 2 nM
- Ki [2, 11]: 6.33 nM
- Ki [3, 12]: 17.9 nM

SMILES: CO[C@@]12CC[C@H](N[C@@H](Cc3ccccc3)C(=O)OC(C)(C)C)[C@@H]3Oc4c(O)ccc5c4[C@@]31CCN(CC1CC1)[C@@H]2C5 [57-tBu ester]
- Ki [1, 10]: 0.68 nM
- Ki [2, 11]: 0.58 nM
- Ki [3, 12]: 1.78 nM

SMILES: CO[C@@]12CC[C@@H](N[C@@H](Cc3ccccc3)C(=O)OC(C)(C)C)[C@@H]3Oc4c(O)ccc5c4[C@@]31CCN(CC1CC1)[C@@H]2C5 [58-tBu ester]
- Ki [1, 10]: 2.41 nM
- Ki [2, 11]: 4.56 nM
- Ki [3, 12]: 13.1 nM

SMILES: CC(C)(C)OC(=O)[C@H](Cc1ccccc1)N[C@H]1CC[C@@]2(O)[C@H]3Cc4ccc(O)c5c4[C@@]2(CCN3CC2CC2)[C@H]1O5 [59-tBu ester]
- Ki [1, 10]: 1 nM
- Ki [2, 11]: 2.15 nM
- Ki [3, 12]: 5 nM

SMILES: CC(C)(C)OC(=O)[C@H](Cc1ccccc1)N[C@@H]1CC[C@@]2(O)[C@H]3Cc4ccc(O)c5c4[C@@]2(CCN3CC2CC2)[C@H]1O5 [60-tBu ester]
- Ki [1, 10]: 5.49 nM
- Ki [2, 11]: 1.12 nM
- Ki [3, 12]: 17.6 nM

SMILES: CO[C@@]12CC[C@H](NCC(=O)OC(C)(C)C)[C@@H]3Oc4c(O)ccc5c4[C@@]31CCN(CC1CC1)[C@@H]2C5 [61-tBu ester]
- Ki [1, 10]: 0.43 nM
- Ki [2, 11]: 0.5 nM
- Ki [3, 12]: 1.41 nM

SMILES: CO[C@@]12CC[C@@H](NCC(=O)OC(C)(C)C)[C@@H]3Oc4c(O)ccc5c4[C@@]31CCN(CC1CC1)[C@@H]2C5 [62-Bu ester]
- Ki [1, 13]: 2.66 nM
- Ki [2, 14]: 0.96 nM
- Ki [3, 15]: 8.36 nM

SMILES: CO[C@@]12CC[C@@H](NCCC(=O)OC(C)(C)C)[C@@H]3Oc4c(O)ccc5c4[C@@]31CCN(CC1CC1)[C@@H]2C5 [64-tBu ester]
- Ki [1, 10]: 1.52 nM
- Ki [2, 11]: 0.91 nM
- Ki [3, 12]: 2.13 nM

SMILES: CO[C@@]12CC[C@H](NCCCC(=O)OC(C)(C)C)[C@@H]3Oc4c(O)ccc5c4[C@@]31CCN(CC1CC1)[C@@H]2C5 [65-tBu ester]
- Ki [1, 10]: 0.46 nM
- Ki [2, 11]: 2.69 nM
- Ki [3, 12]: 0.6 nM

SMILES: CO[C@@]12CC[C@@H](NCCCC(=O)OC(C)(C)C)[C@@H]3Oc4c(O)ccc5c4[C@@]31CCN(CC1CC1)[C@@H]2C5 [66-tBu ester]
- Ki [1, 10]: 2.13 nM
- Ki [2, 11]: 3.78 nM
- Ki [3, 12]: 2.81 nM

SMILES: CO[C@@]12CC[C@H](N[C@H](C(=O)OC(C)(C)C)C(C)C)[C@@H]3Oc4c(O)ccc5c4[C@@]31CCN(CC1CC1)[C@@H]2C5 [68-tBu ester]
- Ki [1, 13]: 1.81 nM
- Ki [2, 14]: 0.85 nM
- Ki [3, 15]: 3.13 nM
